Among the test systems are CCRF-CEM leukemia; HCT-116 colon; NCI-H460 lung; OVCAR-8 ovarian; SF-295 CNS; TK-10 renal; U251 CNS; UACC-257 melanoma; MALME-3M melanoma.
What all share (experiment): DTP human tumour cell line panel, 48 h

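Cells were grown in 96-well plates and exposed to each compound for 48 hours at five concentrations; endpoints were interpolated linearly between bracketing concentrations, or set to the highest concentration if not reached. The concentration for 50% growth inhibition is given as GI50. TGI marks complete inhibition of growth.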

With `CC(C)c1ccc(C(c2ccc(OCC(=O)O)cc2)c2ccc(C(C)C)cc(=O)c2O)c(O)c(=O)c1`, the TGI (usually the concentration giving total growth inhibition) stood at 85.2 µM in the assay with CCRF-CEM leukemia; 14.1 µM in the assay with HCT-116 colon; 8.34 µM in the assay with NCI-H460 lung; 58.3 µM with OVCAR-8 ovarian; 55.1 µM in the assay on SF-295 CNS; 42.8 µM in the assay with TK-10 renal. Besides, the TGI amounted to 24.9 µM with U251 CNS and 41.6 µM in the assay on UACC-257 melanoma.

`CCCCOC(=O)NC(=O)c1cn(C2CCCCC2)c(=O)[nH]c1=O`: the TGI in the assay on CCRF-CEM leukemia is above 100 µM; with HCT-116 colon, 50.1 µM; in the assay on MALME-3M melanoma it was 80.4 µM; in the assay with NCI-H460 lung, above 100 µM; in the assay with OVCAR-8 ovarian, above 100 µM; with SF-295 CNS, above 100 µM. Moreover, the TGI in the assay with TK-10 renal is above 100 µM; in the assay on U251 CNS, 76.1 µM; in the assay on UACC-257 melanoma, above 100 µM.

For `CC(=O)O.[Au].c1ccc([PH+](c2ccccc2)c2ccccc2)cc1`, the GI50 (in general, the concentration giving 50% growth inhibition) is 0.404 µM in the assay on CCRF-CEM leukemia; 1.72 µM in the assay on HCT-116 colon; 1.62 µM in the assay with MALME-3M melanoma; 17.2 µM in the assay with NCI-H460 lung; 5.45 µM in the assay with OVCAR-8 ovarian; 2.89 µM in the assay with SF-295 CNS. The GI50 with TK-10 renal is 2.92 µM; with U251 CNS, 2.57 µM; in the assay with UACC-257 melanoma, 1.82 µM. In addition, the TGI is 2.34 µM with CCRF-CEM leukemia; 3.2 µM in the assay with HCT-116 colon; 3.15 µM with MALME-3M melanoma; 74.7 µM with NCI-H460 lung; 26.3 µM in the assay on OVCAR-8 ovarian; above 100 µM in the assay on SF-295 CNS. The figures for the TGI in the assay with TK-10 renal, in the assay with U251 CNS and with UACC-257 melanoma were 6.74 µM, 7.49 µM and 5.68 µM, respectively.

`O=C(Nc1ccc(Cl)cc1Cl)C(=O)C(C(=O)c1ccncc1)C1OC(=O)c2ccccc21` (centres undefined): the TGI in the assay on CCRF-CEM leukemia, in the assay with HCT-116 colon, in the assay on MALME-3M melanoma, in the assay on NCI-H460 lung, in the assay on OVCAR-8 ovarian and in the assay on SF-295 CNS was above 100 µM throughout. Moreover, the TGI in the assay on TK-10 renal, with U251 CNS and in the assay with UACC-257 melanoma was above 100 µM in each case.

As for `CC(C)c1cc2c(O)c(c1)Cc1cc(C(C)C)cc(c1O)Cc1cc(C(C)C)cc(c1O)Cc1cc(C(C)C)cc(c1O)C2`, the TGI in the assay on CCRF-CEM leukemia, in the assay with HCT-116 colon, with MALME-3M melanoma, in the assay on NCI-H460 lung, in the assay with OVCAR-8 ovarian and in the assay on SF-295 CNS was above 100 µM in each case. For the same compound, the TGI in the assay on TK-10 renal, with U251 CNS and in the assay with UACC-257 melanoma was above 100 µM in each case.

In the case of `CC(=O)N1C/C(=C\c2ccc(N(C)C)cc2)C(=O)/C(=C/c2ccc(N(C)C)cc2)C1`, the TGI with CCRF-CEM leukemia, with HCT-116 colon, in the assay on MALME-3M melanoma, in the assay on OVCAR-8 ovarian, in the assay on SF-295 CNS and with TK-10 renal was above 100 µM each time. The TGI in the assay on U251 CNS and in the assay with UACC-257 melanoma was above 100 µM each time.

Regarding `COC(=O)c1cc(C)c(C)c2c1NC(=O)CNC2=O`, the TGI with CCRF-CEM leukemia, with HCT-116 colon, with NCI-H460 lung, with OVCAR-8 ovarian, in the assay with SF-295 CNS and in the assay with U251 CNS was above 100 µM throughout. Besides, in the assay with UACC-257 melanoma, the TGI is above 100 µM.

For `COC(C(O)c1ccc2c(c1)OCO2)P(=O)(c1ccccc1)c1ccccc1` (centres undefined), the TGI with CCRF-CEM leukemia, in the assay with HCT-116 colon, with MALME-3M melanoma, in the assay with NCI-H460 lung, in the assay on OVCAR-8 ovarian and with TK-10 renal was above 100 µM in each case. Further, the TGI in the assay with U251 CNS and in the assay on UACC-257 melanoma was above 100 µM each time.

`COc1ccc2nc3cc(Cl)ccc3c(NCCN)c2c1`: the GI50 in the assay with CCRF-CEM leukemia was 1.42 µM; in the assay with TK-10 renal it was 1.76 µM; in the assay with U251 CNS, 1.71 µM; in the assay with UACC-257 melanoma it was 18.6 µM. Further, the TGI stood at 5.39 µM in the assay with CCRF-CEM leukemia, 3.18 µM in the assay on TK-10 renal, 3.09 µM with U251 CNS and 33.3 µM in the assay on UACC-257 melanoma.

Regarding `Fc1ccc(C2SCc3nc4ccccc4n32)cc1Cl` (centres undefined), the total growth inhibition concentration (TGI) with CCRF-CEM leukemia is 87.4 µM; with MALME-3M melanoma, 31 µM; in the assay on NCI-H460 lung it was above 100 µM; in the assay on OVCAR-8 ovarian it was 48.1 µM; in the assay with SF-295 CNS, 98.1 µM; with TK-10 renal, 67.1 µM. For the same compound, the values for the TGI in the assay on U251 CNS and with UACC-257 melanoma were 44.6 µM and 56.7 µM, respectively.

In the case of `Cc1ccc(-c2cc(=O)c3cc(C)c(C)c(C(=O)O)c3o2)cc1C`, the TGI with CCRF-CEM leukemia, in the assay on HCT-116 colon, with MALME-3M melanoma, in the assay with NCI-H460 lung, with OVCAR-8 ovarian and in the assay on SF-295 CNS was above 100 µM throughout. Besides, the TGI in the assay on TK-10 renal, in the assay with U251 CNS and in the assay with UACC-257 melanoma was above 100 µM throughout.

`CCc1ccc(Nc2ccc([N+](=O)[O-])cc2[N+](=O)[O-])cc1`: the TGI in the assay on CCRF-CEM leukemia, in the assay on HCT-116 colon, with MALME-3M melanoma, with NCI-H460 lung, with OVCAR-8 ovarian and with SF-295 CNS was above 100 µM in each case. Further, the TGI with TK-10 renal, in the assay with U251 CNS and in the assay with UACC-257 melanoma was above 100 µM each time.

In the case of `c1cc[c]([Pb]([c]2ccccc2)[c]2ccccc2)cc1`, the GI50 is 10.1 µM with CCRF-CEM leukemia; 10.5 µM in the assay with HCT-116 colon; 16.7 µM in the assay on MALME-3M melanoma; 20.2 µM in the assay on NCI-H460 lung; 12.4 µM in the assay on OVCAR-8 ovarian; 21.9 µM with SF-295 CNS. Besides, the figures for the GI50 in the assay with U251 CNS and in the assay on UACC-257 melanoma were 11.3 µM and 19 µM, respectively. The TGI is above 100 µM in the assay with CCRF-CEM leukemia; 27.1 µM in the assay with HCT-116 colon; 36.6 µM in the assay with MALME-3M melanoma; above 100 µM in the assay with NCI-H460 lung; 72.5 µM in the assay on OVCAR-8 ovarian; 58.3 µM in the assay on SF-295 CNS. In addition, the TGI came out at 23.9 µM in the assay on U251 CNS and 59.1 µM with UACC-257 melanoma.

For the compound `COc1ccc(/C(Cl)=C(\C=O)c2ccc([N+](=O)[O-])cc2)cc1`, the TGI in the assay with CCRF-CEM leukemia was 23.2 µM; in the assay on MALME-3M melanoma, 68.1 µM; in the assay with NCI-H460 lung, above 100 µM; in the assay on OVCAR-8 ovarian it was 38.3 µM; in the assay with SF-295 CNS it was 34.6 µM; in the assay on TK-10 renal, above 73.6 µM. Moreover, the TGI with U251 CNS is 19.4 µM; in the assay on UACC-257 melanoma it was 64.9 µM.

The record behind these values is PubChem BioAssay (NCI).
